Measurements reported in patent US6620831B2, “Indazoles substituted with 1,1-dioxoisothiazolidine useful as inhibitors of cell proliferation” (LG Life Sciences Ltd., priority 2000, dated 2003).
pIC50: −log10 of the molar value.

Biological target: T1, CDK2/cyclin A (Homo sapiens, UniProt P24941)
T1 construct: made in house; host or cells: insect ('worm') cells co-infected with baculoviruses
Test: CDK2 inhibitory activity (CDK2/cyclin A, [gamma-32P] ATP, histon H1 or Rb protein substrate)
Assay type: biochemical
Settings: first IC50 column (c1) of Table 1
Text: CDK2 enzyme was obtained from either extract from the worm cell co-infected with baculovirus which expresses a CDK2 gene and baculovirus which expresses a cyclin A gene, or active enzyme purified therefrom. CDK4 was also obtained from either extract from the worm cell co-infected with baculovirus which expresses a CDK4 gene and baculovirus which expresses a cyclin D1 gene. As substrates, histon H1 or Rb protein was used for CDK2, and Rb protein for CDK4. The radioactive activities in substrates were determined by reacting compounds diluted with each concentration with a proper quantity of CDK2/cyclin A or CDK4/cyclin D1 and substrate protein, and [gamma-32P labeled] ATP, and then separating the substrates.
Inhibitory abilities of inhibitors according to the present invention for each enzyme activity were expressed as IC50 values, which were determined in accordance with the method as described above.

SMILES	pIC50
CCOc1ccc(CC(=O)Nc2n[nH]c3ccc(N4CCCS4(=O)=O)cc23)cc1S(=O)(=O)N1CCN(C)CC1 [Compound 81, N-[5-(1,1-dioxo-1λ^6-isothiazolidin-2-yl)-1H-indazol-3-yl]-2-4-ethoxy-3-[(4-methyl-1-piperazinyl)sulfonyl]phenylacetamide]	> 6.00
CC(=S)Nc1n[nH]c2ccc(N3CCCS3(=O)=O)cc12 [Compound 22, N-[5-(1,1-dioxo-1λ^6-isothiazolidin-2-yl)-1H-indazol-3-yl]ethanethioamide]	> 4.30
Cc1cccc(CC(=O)Nc2n[nH]c3ccc(N4CCCS4(=O)=O)cc23)c1 [Compound 27, N-[5-(1,1-dioxo-1λ^6-isothiazolidin-2-yl)-1H-indazol-3-yl]-2-(3-methylphenyl)acetamide]	> 7.30
O=C(Cc1ccc(Cl)c(Cl)c1)Nc1n[nH]c2ccc(N3CCCS3(=O)=O)cc12 [Compound 24, 2-(3,4-dichlorophenyl)-N-[5-(1,1-dioxo-1λ^6-isothiazolidin-2-yl)-1H-indazol-3-yl]acetamide]	> 7.30
COc1ccc(N2CCN(CC(=O)Nc3n[nH]c4ccc(N5CCCS5(=O)=O)cc34)CC2)cc1 [Compound 51, N-[5-(1,1-dioxo-1λ^6-isothiazolidin-2-yl)-1H-indazol-3-yl]-2-[4-(4-methoxyphenyl)-1-piperazinyl]acetamide]	> 5.00
COc1cc(CC(=O)Nc2n[nH]c3ccc(N4CCCS4(=O)=O)cc23)cc(OC)c1 [Compound 71, 2-(3,5-dimethoxyphenyl)-N-[5-(1,1-dioxo-1λ^6-isothiazolidin-2-yl)-1H-indazol-3-yl]acetamide]	> 7.30
O=C(Cc1ccc(N2CCOCC2)cc1)Nc1n[nH]c2ccc(N3CCCS3(=O)=O)cc12 [Compound 35, N-[5-(1,1-dioxo-1λ^6-isothiazolidin-2-yl)-1H-indazol-3-yl]-2-[4-(1-morpholinyl)phenyl]acetamide]	> 7.00
O=C(Cc1csc(NCc2ccc(OCc3ccccc3)cc2)n1)Nc1n[nH]c2ccc(N3CCCS3(=O)=O)cc12 [Compound 77, 2-(2-[4-(benzyloxy)benzyl]amino-1,3-thiazol-4-yl)-N-[5-(1,1-dioxo-1λ^6-isothiazolidin-2-yl)-1H-indazol-3-yl]acetamide]	> 5.00
O=C(Cc1ccc(-c2ccco2)cc1)Nc1n[nH]c2ccc(N3CCCS3(=O)=O)cc12 [Compound 39, N-[5-(1,1-dioxo-1λ^6-isothiazolidin-2-yl)-1H-indazol-3-yl]-2-[4-(2-furyl)phenyl]acetamide]	> 7.30
CCN(CC)c1nc(CC(=O)Nc2n[nH]c3ccc(N4CCCS4(=O)=O)cc23)cs1 [Compound 65, 2-[2-(diethylamino)-1,3-thiazol-4-yl]-N-[5-(1,1-dioxo-1λ^6-isothiazolidin-2-yl)-1H-indazol-3-yl]acetamide]	> 6.30
O=C(Cc1ccc(OCc2ccccc2)cc1)Nc1n[nH]c2ccc(N3CCCS3(=O)=O)cc12 [Compound 3, 2-[4-(benzyloxy)phenyl]-N-[5-(1,1-dioxo-1λ^6-isothiazolidin-2-yl)-1H-indazol-3-yl]acetamide]	> 7.00
CNc1ccc(CC(=O)Nc2n[nH]c3ccc(N4CCCS4(=O)=O)cc23)cc1 [Compound 6, N-[5-(1,1-dioxo-1λ^6-isothiazolidin-2-yl)-1H-indazol-3-yl]-2-[4-(methylamino)phenyl]acetamide]	> 7.30
COCCOCCOCCOc1ccc(CC(=O)Nc2n[nH]c3ccc(N4CCCS4(=O)=O)cc23)cc1 [Compound 66, N-[5-(1,1-dioxo-1λ^6-isothiazolidin-2-yl)-1H-indazol-3-yl]-2-(4-2-[2-(2-methoxyethoxy)ethoxy]ethoxyphenyl)acetamide]	> 7.00
O=C(Cn1cnc(-c2ccc3ccccc3c2)c1)Nc1n[nH]c2ccc(N3CCCS3(=O)=O)cc12 [Compound 62, N-[5-(1,1-dioxo-1λ^6-isothiazolidin-2-yl)-1H-indazol-3-yl]-2-[4-(2-naphthyl)-1H-imidazol-1-yl]acetamide]	> 7.30
O=C(Nc1n[nH]c2ccc(N3CCCS3(=O)=O)cc12)C(c1ccccc1)C1CCCC1 (stereo not drawn) [Compound 56, 2-cyclopentyl-N-[5-(1,1-dioxo-1λ^6-isothiazolidin-2-yl)-1H-indazol-3-yl]-2-phenylacetamide]	> 4.00
CC(=O)c1ccc(N2CCN(CC(=O)Nc3n[nH]c4ccc(N5CCCS5(=O)=O)cc34)CC2)cc1 [Compound 53, 2-[4-(4-acetylphenyl)-1-piperazinyl]-N-[5-(1,1-dioxo-1λ^6-isothiazolidin-2-yl)-1H-indazol-3-yl]acetamide]	> 5.00
CCC(C(=O)Nc1n[nH]c2ccc(N3CCCS3(=O)=O)cc12)c1ccccc1 (stereo not drawn) [Compound 57, N-[5-(1,1-dioxo-1λ^6-isothiazolidin-2-yl)-1H-indazol-3-yl]-2-phenylbutanamide]	> 4.00
CCNc1cccc(CC(=O)Nc2n[nH]c3ccc(N4CCCS4(=O)=O)cc23)c1 [Compound 69, N-[5-(1,1-dioxo-1λ^6-isothiazolidin-2-yl)-1H-indazol-3-yl]-2-[3-(ethylamino)phenyl]acetamide]	> 6.30
O=C(Cc1ccc(-c2ccccc2)cc1)Nc1n[nH]c2ccc(N3CCCS3(=O)=O)cc12 [Compound 10, 2-[1,1′-biphenyl]-4-yl-N-[5-(1,1-dioxo-1λ^6-isothiazolidin-2-yl)-1H-indazol-3-yl]acetamide]	> 7.30
O=C(Cc1ccc(-c2ccsc2)cc1)Nc1n[nH]c2ccc(N3CCCS3(=O)=O)cc12 [Compound 36, N-[5-(1,1-dioxo-1λ^6-isothiazolidin-2-yl)-1H-indazol-3-yl]-2-[4-(3-thienyl)phenyl]acetamide]	> 7.30
O=C(Cc1cccc2ccccc12)Nc1n[nH]c2ccc(N3CCCS3(=O)=O)cc12 [Compound 16, N-[5-(1,1-dioxo-1λ^6-isothiazolidin-2-yl)-1H-indazol-3-yl]-2-(1-naphthyl)acetamide]	> 7.30
CCOc1ccc(CC(=O)Nc2n[nH]c3ccc(N4CCCS4(=O)=O)cc23)cc1S(=O)(=O)N1CCOCC1 [Compound 79, N-[5-(1,1-dioxo-1λ^6-isothiazolidin-2-yl)-1H-indazol-3-yl]-2-[4-ethoxy-3-(4-morpholinylsulfonyl)phenyl]acetamide]	> 6.00
O=C(Cc1ccc(CN2CCOCC2)cc1)Nc1n[nH]c2ccc(N3CCCS3(=O)=O)cc12 [Compound 43, N-[5-(1,1-dioxo-1λ^6-isothiazolidin-2-yl)-1H-indazol-3-yl]-2-[4-(4-morpholinylmethyl)phenyl]acetamide]	> 7.00
O=C(Cc1ccccc1)Nc1n[nH]c2ccc(N3CCCS3(=O)=O)cc12 [Compound 1, N-[5-(1,1-dioxo-1λ^6-isothiazolidin-2-yl)-1H-indazol-3-yl]-2-phenylacetamide]	> 7.30
O=C(Cc1ccc2c(c1)OCO2)Nc1n[nH]c2ccc(N3CCCS3(=O)=O)cc12 [Compound 15, 2-(1,3-benzodioxol-5-yl)-N-[5-(1,1-dioxo-1λ^6-isothiazolidin-2-yl)-1H-indazole-3-yl]acetamide]	> 7.30
CCN(CC)c1cccc(CC(=O)Nc2n[nH]c3ccc(N4CCCS4(=O)=O)cc23)c1 [Compound 70, 2-[3-(diethylamino)phenyl]-N-[5-(1,1-dioxo-1λ^6-isothiazolidin-2-yl)-1H-indazol-3-yl]acetamide]	> 6.30
O=C(Cc1ccc(O)cc1)Nc1n[nH]c2ccc(N3CCCS3(=O)=O)cc12 [Compound 4, N-[5-(1,1-dioxo-1λ^6-isothiazolidin-2-yl)-1H-indazol-3-yl]-2-(4-hydroxyphenyl)acetamide]	> 7.30
